Results on two compounds are retold here after US6743824B2 (Somerset Pharmaceuticals, Inc., priority 1996, dated 2004).

SMILES strings stand for the structures. Where a name gives a salt, the structure may show the parent alone.

Assay [1] relates to peripheral neuropathy caused by vincristine. In words: Treatment of peripheral neuropathy caused by vincristine (Example 1). Type of assay: in vivo, human. As to conditions: patient with endometrial carcinoma on vincristine 1.4 mg/m^2 weekly; 5 mg orally twice a day. Here is the method: A patient with endometrial carcinoma is given an intravenous bolus injection of vincristine at a dose of 1.4 mg/m^2 weekly. The toxic effects of vincristine cause sensory loss in the fingers and toes, a loss of the ankle jerk reflex, weakness and postural hypotension. […] During this time, therapy with vincristine is continued and evaluations of both tumor response and toxic side effects are carried out by a physician on a weekly basis. After continued therapy, symptoms associated with peripheral neuropathy subside. At this point, the dosage of vincristine is increased to 1.8 mg/m^2 and the process is continued.

The next assay has as its system retinal ganglion cells. As to conditions: rat optic nerve crush model; Buys et al. 1994; cited from earlier work.
In the next assay the test system is spinal motor neurons. As to conditions: rat; Iwasaki et al. 1994; cited from earlier work.
Assay [2] concerns cultured spinal cord neuron. As to conditions: Iwasaki et al. 1994; cited from earlier work.
A further assay concerns CNS neurons. As to conditions: toxins such as MPP+, kainic acid or DSP-4; cited from earlier work.
Assay [3] deals with axotomized rat facial motor neurons. Particulars: Salo et al. 1992; cited from earlier work.

Turning to `C#CCN(C)[C@H](C)Cc1ccccc1` [selegiline hydrochloride], in assay [1], the “symptoms associated with peripheral neuropathy” value is on record as “subside”.
As for `C#CCN(C)C(C)Cc1ccccc1` (stereo not drawn) [selegiline, R-(−)-N-methyl-N-(prop-2-ynyl)-2-aminophenylpropane], the “survival of retinal ganglion cells at risk of undergoing apoptosis” value with retinal ganglion cells is listed as “increase the survival”. Besides, in the assay with spinal motor neurons, the “effect on axotomy-induced cell death in spinal motor neurons” value was “neuroprotective effect”. The neurite outgrowth entry in assay [2] was “enhance neurite outgrowth”. Moreover, the “survival of CNS neurons after exposure to chemical toxins” value in the assay with CNS neurons is recorded as “increase the survival”. Also, the “rescue of axotomized facial motor neurons” value in assay [3] is on record as “capable of rescuing”.
